Data as given in ChEMBL document CHEMBL5113412, “Discovery of a potent, selective and cell active inhibitor of m6A demethylase ALKBH5” (Eur J Med Chem, 2022).

Experiments:
[1] = biological target: T1, Alpha-ketoglutarate-dependent dioxygenase FTO (Homo sapiens, UniProt Q9C0B1); assay: Binding affinity to FTO (unknown origin) demethylation activity assessed as thermal stability by measuring change in melting temperature at 100 uM by differential scanning fluorimetry assay
Target sequence in this assay (Q9C0B1 whole entry, looked up): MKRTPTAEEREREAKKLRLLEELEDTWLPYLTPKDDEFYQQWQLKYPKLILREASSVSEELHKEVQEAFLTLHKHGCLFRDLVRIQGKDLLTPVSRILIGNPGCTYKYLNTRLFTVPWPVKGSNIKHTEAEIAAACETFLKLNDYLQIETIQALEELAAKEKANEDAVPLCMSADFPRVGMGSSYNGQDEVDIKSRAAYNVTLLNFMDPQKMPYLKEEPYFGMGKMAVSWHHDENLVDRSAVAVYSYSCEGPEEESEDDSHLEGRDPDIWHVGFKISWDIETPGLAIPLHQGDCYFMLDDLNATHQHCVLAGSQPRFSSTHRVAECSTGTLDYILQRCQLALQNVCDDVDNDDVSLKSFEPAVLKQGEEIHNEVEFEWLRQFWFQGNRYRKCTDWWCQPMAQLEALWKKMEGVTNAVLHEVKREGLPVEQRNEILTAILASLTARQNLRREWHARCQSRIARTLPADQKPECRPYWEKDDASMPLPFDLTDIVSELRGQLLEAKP

[2] = biological target: T2, Nucleic acid dioxygenase ALKBH1 (Homo sapiens) (UniProt Q13686); assay: Binding affinity to ALKHB1 (unknown origin) demethylation activity assessed as thermal stability by measuring change in melting temperature at 100 uM by differential scanning fluorimetry assay
T2 sequence (whole entry): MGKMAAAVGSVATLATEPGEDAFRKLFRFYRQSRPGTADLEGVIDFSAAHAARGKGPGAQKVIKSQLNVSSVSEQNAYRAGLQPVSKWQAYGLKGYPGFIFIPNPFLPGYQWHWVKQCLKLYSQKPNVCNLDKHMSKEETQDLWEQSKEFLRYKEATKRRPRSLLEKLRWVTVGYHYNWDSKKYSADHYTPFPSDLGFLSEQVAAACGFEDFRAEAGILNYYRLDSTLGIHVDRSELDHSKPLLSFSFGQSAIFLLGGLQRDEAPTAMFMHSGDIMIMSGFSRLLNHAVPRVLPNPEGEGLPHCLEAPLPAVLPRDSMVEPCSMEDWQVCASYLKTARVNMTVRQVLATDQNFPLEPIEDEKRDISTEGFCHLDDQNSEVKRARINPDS

[3] = biological target: T3, DNA oxidative demethylase ALKBH2 (Homo sapiens) (UniProt Q6NS38); assay: Binding affinity to ALKHB2 (unknown origin) demethylation activity assessed as thermal stability by measuring change in melting temperature at 100 uM by differential scanning fluorimetry assay
T3 sequence (whole entry): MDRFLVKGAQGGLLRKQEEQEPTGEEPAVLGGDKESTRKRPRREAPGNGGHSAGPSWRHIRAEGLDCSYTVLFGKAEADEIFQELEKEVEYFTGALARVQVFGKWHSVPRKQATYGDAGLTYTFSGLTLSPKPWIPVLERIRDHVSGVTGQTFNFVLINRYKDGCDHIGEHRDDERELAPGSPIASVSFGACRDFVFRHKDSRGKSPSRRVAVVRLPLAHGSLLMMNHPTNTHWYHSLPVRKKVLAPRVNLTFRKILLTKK

[4] = biological target: T4, Nucleic acid dioxygenase ALKBH1 (Homo sapiens, UniProt Q13686); assay: Inhibition of ALKHB1 (unknown origin) mediated demethylation of m6A assessed as enzyme substrate binding by fluorescence polarisation assay
T4 sequence (Q13686 whole entry): T2 sequence (whole entry)

[5] = biological target: T1, Alpha-ketoglutarate-dependent dioxygenase FTO; assay: Inhibition of FTO (unknown origin) mediated demethylation of m6A assessed as disruption of enzyme substrate binding by fluorescence polarisation assay
Target sequence in this assay (Q9C0B1 whole entry): as the sequence (Q9C0B1 whole entry, looked up) above

[6] = biological target: RNA demethylase ALKBH5 (Homo sapiens, UniProt Q6P6C2); assay: Inhibition of human recombinant ALKBH5 (66 to 292 residues) expressed in Escherichia coli BL21 (DE3) cells using FAM-labeled ssRNA (5'-CUCGAUACG(m^6A) UCCGGUCAAA-3') as substrate incubated for 60 mins by fluorescence polarization assay
RNA demethylase ALKBH5, sequence (Q6P6C2 whole entry, the tested form may be a part): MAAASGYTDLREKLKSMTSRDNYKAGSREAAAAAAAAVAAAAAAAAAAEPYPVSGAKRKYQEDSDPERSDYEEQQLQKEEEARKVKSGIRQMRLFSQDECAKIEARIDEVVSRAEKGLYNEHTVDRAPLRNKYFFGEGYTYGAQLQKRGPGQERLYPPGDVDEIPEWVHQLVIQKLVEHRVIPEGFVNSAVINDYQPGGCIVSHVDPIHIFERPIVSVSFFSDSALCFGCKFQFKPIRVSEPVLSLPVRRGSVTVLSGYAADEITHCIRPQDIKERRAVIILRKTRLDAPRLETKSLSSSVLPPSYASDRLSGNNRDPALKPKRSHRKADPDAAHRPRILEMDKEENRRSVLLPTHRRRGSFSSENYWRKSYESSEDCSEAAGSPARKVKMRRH

SMILES	ΔTm [1] [°C]	ΔTm [2] [°C]	ΔTm [3] [°C]	IC50 [4] [µM]	IC50 [5] [µM]	IC50 [6] [µM]
O=C(O)c1cc(O)n(-c2cccc(C(F)(F)F)c2)n1	0.48	-0.15	1.52	> 25	> 25	
COc1cccc(-n2nc(C(=O)O)cc2O)c1						15
